pIC50: −log10 of the molar value.
Key:
[1] = test system: MCF7; assay: Cytotoxicity against human MCF7 cells after 48 hrs by MTT assay; format: functional, cell-based; details: MCF7, 48 h
[2] = test system: HepG2; assay: Cytotoxicity against human HepG2 cells after 48 hrs by MTT assay; format: functional, cell-based; details: HepG2, 48 h
[3] = test system: MDA-MB-231; assay: Cytotoxicity against human MDA-MB-231 cells after 48 hrs by MTT assay; format: functional, cell-based; details: MDA-MB-231, 48 h
[4] = Cytotoxicity against human MCF10A cells after 72 hrs by MTT assay; format: cell-based; details: MCF-10A
[5] = test system: BT-549; assay: Cytotoxicity against human BT549 cells after 48 hrs by MTT assay; format: functional, cell-based; details: BT-549, 48 h

| SMILES | pIC50 [1] | pIC50 [2] | pIC50 [3] | pIC50 [4] | pIC50 [5] |
| --- | --- | --- | --- | --- | --- |
| Oc1ccccc1-c1ccc2ccccc2n1 | < 4.30 | < 4.30 |  |  |  |
| Cc1ccc2nc(-c3ccccc3Br)ccc2c1 | < 4.30 | < 4.30 |  |  |  |
| Clc1ccc(-c2ccc3ccccc3n2)c(Cl)c1 | 4.60 | 4.50 | < 4.00 | < 4.00 | < 4.00 |
| Nc1ccc(-c2ccc3ccc(Cl)cc3n2)cc1 | 5.22 | 4.96 | < 4.00 | < 4.00 | < 4.00 |
| Cc1ccc2nc(-c3ccc(Cl)cc3Cl)ccc2c1 | < 4.30 | < 4.30 |  |  |  |
| Brc1ccc(-c2ccc3ccccc3n2)cc1 | 4.92 | 5.05 | < 4.00 | 4.22 | < 4.00 |
| Cc1ccc2nc(-c3ccc(N)cc3)ccc2c1 | 4.47 | 4.39 |  |  |  |
| Cc1ccc2nc(-c3cc(O)ccc3O)ccc2c1 | 4.55 | 4.72 |  |  |  |
| Cc1ccc2nc(-c3cccc([N+](=O)[O-])c3)ccc2c1 | 4.64 | 4.43 | < 4.00 | < 4.00 | < 4.00 |
| Cc1ccc2nc(-c3ccccc3)ccc2c1 | < 4.30 | < 4.30 |  |  |  |
